System: rat platelet aggregation
Experiment: Inhibitory action on rat platelet aggregation in vitro (ADP-induced, platelet-rich plasma)
Format: cell-based
Settings: SD rat PRP, ADP 2 μmol/L; relative activity from IC50, activity of IC50 value of PGE1 = 100
Experimental: Experimental Example 2: Evaluation of Inhibitory Action on Rat Platelet Aggregation In Vitro (1) Preparation of Rat Platelet-Rich Plasma In the same manner as in the above-mentioned Experimental Example 1(1), blood samples were collected from the abdominal artery of 8- to 9-week-old male SD rats. PRP was diluted with PPP and the number of platelet was adjusted to 63.2×10^4/μL. (2) Measurement of Platelet Aggregation Ability In the same manner as in the above-mentioned Experimental Example 1(2) except that the final concentration of ADP was 2 μmol/L, the compound of the present invention, prostaglandin E1 (PGE1:positive control substance) or vehicle control was added as a test substance, and the maximum response of aggregation was measured. (3) Evaluation of Platelet Aggregation Inhibitory Action In the same manner as in the above-mentioned Experimental Example 1(3), IC50 values were determined from the aggregation inhibition ratio of the test substance, and the relative activity (%) of each test substance was calculated by defining the activity of IC50 value of PGE1 as 100.

Point of comparison: `CCC#CC[C@H](C)C(O)/C=C/[C@H]1[C@H](O)CC(=O)[C@@H]1CCSC/C=C/C(=O)OC` (mixture of isomers) [compound (1)-2, methyl (2E)-4-((2-((1R,2R,3R)-3-hydroxy-2-((1E,3RS,4S)-3-hydroxy-4-methylnon-1-en-6-yn-1-yl)-5-oxocyclopentyl)ethyl)thio)but-2-enoate], “Relative activity (%)” value 62%. Against it:
- CCCCC[C@H](O)/C=C/[C@H]1[C@H](O)CC(=O)[C@@H]1CCCCCCC(=O)O [PGE1, prostaglandin E1, reference compound] — higher, 100%
- CCC#CC[C@H](C)C(O)/C=C/[C@H]1[C@H](O)CC(=O)[C@@H]1CCCCCCC(=O)OC (stereo partly drawn) [compound (1)-3, methyl ((1R,2R,3R)-3-hydroxy-2-((1E,3RS,4S)-3-hydroxy-4-methylnon-1-en-6-yn-1-yl)-5-oxocyclopentyl)heptanoate] — higher, 2175%
- CCC#CC[C@H](C)[C@H](O)/C=C/[C@H]1[C@H](O)CC(=O)[C@@H]1CCCCCC(F)(F)C(=O)O [compound (1)-8, 2,2-difluoro-7-((1R,2R,3R)-3-hydroxy-2-((1E,3S,4S)-3-hydroxy-4-methylnon-1-en-6-yn-1-yl)-5-oxocyclopentyl)heptanoic acid] — higher, 817%
